Assay results reported in patent US20210277003A1, “OGA INHIBITOR COMPOUNDS” (Janssen Pharmaceutica NV, priority 2018, published 2021).

Tests used:
[1] = biological target: T1, recombinant human Meningioma Expressed Antigen 5 (MGEA5), also referred to as O-GlcNAcase (OGA) (Homo sapiens, UniProt O60502); experiment: OGA biochemical assay: inhibition of hydrolysis of fluorescein mono-ß-D-N-Acetyl-Glucosamine (FM-GlcNAc), fluorescence readout; details: FM-GlcNAc substrate; for Emax: read-out: Enzymatic Emax (%); for IC50: read-out: Enzymatic hOGA, pIC50 (converted)
T1 construct: Full length OGA enzyme was purchased at OnGene (cat #TP322411); purchased OnGene (so in the source)
T1 sequence (O60502 1-916): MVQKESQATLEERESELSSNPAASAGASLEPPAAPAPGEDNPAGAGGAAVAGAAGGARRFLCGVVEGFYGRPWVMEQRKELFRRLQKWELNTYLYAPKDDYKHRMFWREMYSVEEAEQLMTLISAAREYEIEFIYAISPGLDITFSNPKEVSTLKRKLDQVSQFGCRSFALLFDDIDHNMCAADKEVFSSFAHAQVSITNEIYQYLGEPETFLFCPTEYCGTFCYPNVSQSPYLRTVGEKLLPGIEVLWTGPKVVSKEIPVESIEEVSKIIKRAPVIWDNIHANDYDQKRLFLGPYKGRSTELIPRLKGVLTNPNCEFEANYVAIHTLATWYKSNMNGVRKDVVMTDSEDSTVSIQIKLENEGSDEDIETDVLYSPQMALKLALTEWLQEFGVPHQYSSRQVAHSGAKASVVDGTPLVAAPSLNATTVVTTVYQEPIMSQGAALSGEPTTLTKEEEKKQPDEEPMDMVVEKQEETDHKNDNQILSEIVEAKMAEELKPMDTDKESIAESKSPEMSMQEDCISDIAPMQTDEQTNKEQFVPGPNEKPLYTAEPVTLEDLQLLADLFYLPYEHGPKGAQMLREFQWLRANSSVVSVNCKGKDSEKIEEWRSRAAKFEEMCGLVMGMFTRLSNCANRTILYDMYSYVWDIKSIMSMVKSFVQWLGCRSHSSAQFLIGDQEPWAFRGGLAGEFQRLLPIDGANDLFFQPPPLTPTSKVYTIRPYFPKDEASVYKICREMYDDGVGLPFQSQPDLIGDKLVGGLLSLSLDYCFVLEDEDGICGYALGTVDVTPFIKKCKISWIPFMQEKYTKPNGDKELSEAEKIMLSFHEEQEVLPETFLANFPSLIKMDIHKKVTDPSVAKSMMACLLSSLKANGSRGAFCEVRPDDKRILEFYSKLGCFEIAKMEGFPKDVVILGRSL
Summary of the method: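 Full-length recombinant human OGA (2 nM) was pre-incubated with compound for 60 min, then reacted with 100 uM FM-GlcNAc for 6 h at room temperature in 200 mM citrate/phosphate pH 7.2 with 0.005% Tween-20. Reactions were stopped with pH 11.0 carbonate and fluorescein read at 485/538 nm. IC50 and Hill coefficient came from curve fitting.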

[2] = system: OGA in HEK293 cells inducible for P301L mutant human Tau (isoform 2N4R); experiment: OGA cellular assay: immunocytochemical detection of O-GlcNAcylated proteins (CTD110.6 antibody); assay type: cell-based; details: 6 hours incubation; for Emax / EC50: Homo sapiens, HEK293, 6 h; for EC50: read-out: Cellular hOGA, pEC50 (converted)
Summary of the method: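 Cells seeded 2 days ahead in low-glucose assay medium and exposed to compounds for 6 h at 0.2% DMSO, then PFA-fixed and immunostained. Signal is 488 nm intensity from imaging (9 fields/well), with Hoechst nuclei counts as a toxicity check. IC50 from non-linear regression, with 200 uM Thiamet G per plate as maximum inhibition.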

Enzymatic hOGA; pIC50 [1]	Emax [1]	Enzymatic Emax (%) [1]	IC50 [1]	Structure (SMILES)	Emax ([2]; maximum = Thiamet G 200 uM)	EC50 [2]	Cellular hOGA; pEC50 [2]	Cellular Emax (%) ([2]; maximum = Thiamet G 200 uM)
7.06	100%	–	–	CCCCn1ccc2c(Nc3c(C)ccc4[nH]c(C)nc34)nccc21 [Compound 11]	80%	288 nM	–	–
7.08	103%	–	–	Cc1ccnc(C)c1Nc1nccc2c1ccn2CC1CCOC1 (stereo not drawn) [Compound 140]	63.9%	603 nM	–	–
7.31	102%	–	–	Cc1ccnc(C)c1Nc1nccc2c1ccn2CCC(C)(F)F [Compound 90]	62%	363 nM	–	–
–	–	101%	4.57 nM	Cc1ccnc(C)c1Nc1nccc2c1ccn2CC1CCO1 (single isomer, unassigned) [Compound 25b]	–	–	7.63	90%
–	100%	–	115 nM	Cc1ccnc(C)c1Nc1nccc2c1ccn2CCC1COC1 [Compound 38]	63%	562 nM	–	–
–	103%	–	1.7 nM	Clc1cccc(Cl)c1Nc1nccc2c1ccn2CCC1CC1 [Compound 70]	82%	37.2 nM	–	–
–	101%	–	47.9 nM	N#Cc1ccc(-n2ccc3c(Nc4c(Cl)cccc4Cl)nccc32)nc1 [Compound 166]	44.1%	1000 nM	–	–
–	99.3%	–	12.9 nM	Cc1cccc(S(C)(=O)=O)c1Nc1nccc2c1ccn2CC1CC(F)(F)C1 [Compound 174]	87%	93.3 nM	–	–
–	104%	–	12 nM	Clc1cccc(Cl)c1Nc1nccc2c1ccn2Cc1ncco1 [Compound 169]	67.5%	550 nM	–	–
8.88	102%	–	–	CCC(F)(F)Cn1ccc2c(Nc3c(C)ccnc3C(C)C)nccc21 [Compound 112]	92.3%	~1.82 nM	–	–
–	103%	–	1.55 nM	Cc1cc(C(F)(F)F)cc(C)c1Nc1nccc2c1ccn2CC(F)(F)C(C)C [Compound 176]	101%	5.5 nM	–	–
–	102%	–	2.04 nM	Cc1cc(C)c(Nc2nccc3c2ccn3CC(F)(F)C(C)C)c(OC(F)F)n1 [Compound 179]	80.9%	20.4 nM	–	–
–	86%	–	2140 nM	Cc1ccnc(C)c1Nc1nccc2c1ccn2CC(C)(C)C#N [Compound 84]	8%	> 1000 nM	–	–
8.67	103%	–	–	Cc1ccnc(C(C)C)c1Nc1nccc2c1ccn2CC1CCO1 (stereo not drawn) [Compound 160]	96%	8.13 nM	–	–
–	102%	–	4.57 nM	CCCCn1ccc2c(Nc3c(C)cc(C(=O)NC)cc3C)nccc21 [Compound 57]	107%	11 nM	–	–
–	100%	–	28.8 nM	CCCCn1ccc2c(Nc3c(Cl)cccc3Cl)ncc(F)c21 [Compound 74]	40%	> 1000 nM	–	–
–	101%	–	1.12 nM	Cc1cc(-c2cnn(C)c2)cc(C)c1Nc1nccc2c1ccn2CC(F)(F)C(C)C [Compound 178]	103%	2.95 nM	–	–
–	100%	–	6.31 nM	Cc1cc2c(c(C)c1Nc1nccc3c1ccn3CC1CC(F)(F)C1)OCCO2 [Compound 175]	80.1%	37.2 nM	–	–
8.67	101%	–	–	Cc1cc(-c2cnn(C)c2)cc(C)c1Nc1nccc2c1ccn2CC(C)(F)F [Compound 154]	86.2%	3.47 nM	–	–
7.53	99.2%	–	–	CC[C@H](O)Cn1ccc2c(Nc3c(C)cc(C#N)cc3Cl)nccc21 [Compound 123b]	71.1%	100 nM	–	–
7.83	101%	–	–	CCC(C)Cn1ccc2c(Nc3c(C)ccnc3C)nccc21.Cl (stereo not drawn) [Compound 16]	85%	32.4 nM	–	–

Enzymatic hOGA; pIC50 [1]	Emax [1]	Enzymatic Emax (%) [1]	IC50 [1]	Structure (SMILES)	Emax ([2]; maximum = Thiamet G 200 uM)	EC50 [2]	Cellular hOGA; pEC50 [2]	Cellular Emax (%) ([2]; maximum = Thiamet G 200 uM)
–	103%	–	1.7 nM	CCCCn1ccc2c(Nc3c(C)ccc(C(=O)N4CCCC4)c3C)nccc21 [Compound 55]	104%	22.4 nM	–	–
–	100%	–	1.62 nM	Cc1cc(OC(F)F)nc(C)c1Nc1nccc2c1ccn2CC(F)(F)C(C)C [Compound 188]	89.1%	~4.37 nM	–	–
8.26	101%	–	–	Cc1ccnc(C(C)C)c1Nc1nccc2c1ccn2CC1CC(F)(F)C1 [Compound 117]	89.6%	44.7 nM	–	–
8.89	102%	–	–	Cc1cc(F)cc(C(C)C)c1Nc1nccc2c1ccn2CC(C)(F)F [Compound 148]	87.5%	~4.79 nM	–	–
–	102%	–	4.27 nM	Cc1cc(F)cc(F)c1Nc1nccc2c1ccn2CC(F)(F)C(C)C [Compound 186]	85.9%	24.5 nM	–	–
–	100%	–	5.62 nM	CCCCn1ccc2c(Nc3c(C)cccc3C)nccc21 [Compound 72]	78%	53.7 nM	–	–
7.18	101%	–	–	CCCCn1ccc2c(Nc3c(C)ccc4cccnc34)nccc21 [Compound 15]	71%	562 nM	–	–
–	104%	–	2.24 nM	CCC(F)(F)Cn1ccc2c(Nc3c(C)ccnc3C)nccc21 [Compound 27]	112%	7.59 nM	–	–
8.75	103%	–	–	Cc1c(F)cnc(C(C)C)c1Nc1nccc2c1ccn2CC1CCO1 (stereo not drawn) [Compound 127]	76.7%	11.5 nM	–	–
–	103%	–	3.72 nM	CCCCn1ccc2c(Nc3c(C)cc(C(=O)N(C)C)cc3C)nccc21 [Compound 61]	92%	5.89 nM	–	–
–	102%	–	4.79 nM	CCCCn1ccc2c(Nc3c(C)cc4c(cnn4C)c3C)nccc21 [Compound 87]	87%	12.9 nM	–	–
7.95	101%	–	–	CCCCn1ccc2c(Nc3c(C)cncc3Cl)nccc21 [Compound 5]	67%	67.6 nM	–	–
7.94	99.7%	–	–	Cc1ccnc(OC(F)F)c1Nc1nccc2c1ccn2CC(C)(F)F [Compound 132]	82.2%	110 nM	–	–
–	102%	–	3.63 nM	CC(C)CCn1ccc2c(Nc3c(Cl)cccc3Cl)nccc21 [Compound 60]	86%	55 nM	–	–
–	102%	–	9.55 nM	Cc1ccnc(C(F)F)c1Nc1nccc2c1ccn2CC1CCO1 (stereo not drawn) [Compound 81]	74%	102 nM	–	–
–	104%	–	4.79 nM	Cc1ccnc(C)c1Nc1nccc2c1ccn2CC1CCO1 (stereo not drawn) [Compound 25]	89%	38 nM	–	–
8.67	100%	–	–	Cc1cc(F)cc(C)c1Nc1nccc2c1ccn2CC(C)(F)F [Compound 126]	87.1%	10.5 nM	–	–
8.58	101%	–	–	Cc1cc(OC(F)F)nc(C)c1Nc1nccc2c1ccn2CC(C)(F)F [Compound 149]	96.4%	10.7 nM	–	–
–	99%	–	17.8 nM	CCCCn1ccc2c(Nc3c(F)cncc3C(C)C)nccc21 [Compound 46]	67%	251 nM	–	–
–	101%	–	5.37 nM	CCCCn1ccc2c(Nc3c(C)cc(NC(C)=O)cc3C)nccc21 [Compound 62]	95%	9.33 nM	–	–
–	99%	–	178 nM	CCCCn1cc(F)c2c(Nc3c(C)cncc3C)nccc21 [Compound 34]	36%	> 1000 nM	–	–
